Here are results for seven molecules from US9150577B2, “Heterocyclic compounds containing an indole core” (Boehringer Ingelheim International GmbH, priority 2009, dated 2015).

The test system of assay [1] is NHE1. The conditions noted are these: cited from earlier work.
The target of assay [2] is Human RSK2 (Homo sapiens (Human), UniProt P51812). Put plainly: Human RSK2 assay (Kinase Glo Plus, residual ATP).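 Also: recombinant human RSK2 phosphorylating a substrate peptide, 90 min at 28 °C, leftover ATP read by luminescence, RLU scaled between no-kinase background and uninhibited kinase controls, 4-parameter fit.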 Type of assay: biochemical.
Sequence of Human RSK2 (P51812 whole entry): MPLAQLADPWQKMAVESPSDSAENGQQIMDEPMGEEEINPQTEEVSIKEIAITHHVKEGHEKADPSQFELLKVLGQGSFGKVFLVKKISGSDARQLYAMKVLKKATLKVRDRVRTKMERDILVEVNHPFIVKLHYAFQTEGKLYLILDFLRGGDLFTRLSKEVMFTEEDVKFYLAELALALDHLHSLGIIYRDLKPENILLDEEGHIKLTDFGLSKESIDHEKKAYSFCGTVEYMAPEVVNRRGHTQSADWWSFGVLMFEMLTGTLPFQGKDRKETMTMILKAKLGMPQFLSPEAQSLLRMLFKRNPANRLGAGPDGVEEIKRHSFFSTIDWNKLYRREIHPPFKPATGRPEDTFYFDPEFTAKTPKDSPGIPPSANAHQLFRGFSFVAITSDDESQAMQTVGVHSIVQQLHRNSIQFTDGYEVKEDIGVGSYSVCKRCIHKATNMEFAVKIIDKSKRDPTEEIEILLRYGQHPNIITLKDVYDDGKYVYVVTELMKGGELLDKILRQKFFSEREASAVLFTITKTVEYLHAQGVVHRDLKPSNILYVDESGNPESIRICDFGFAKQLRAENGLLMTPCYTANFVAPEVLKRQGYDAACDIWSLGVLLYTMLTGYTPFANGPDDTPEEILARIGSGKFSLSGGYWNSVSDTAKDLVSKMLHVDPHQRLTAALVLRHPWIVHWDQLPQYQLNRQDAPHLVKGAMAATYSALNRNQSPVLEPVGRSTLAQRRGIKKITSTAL

In the case of `Cc1ccc(-c2c(C(=O)CF)n(CCCO)c3ncnc(N)c23)cc1` [fmk], in assay [1] (basal), the “basal NHE1 activity” value was “without affecting basal activity”. The “phosphorylation of NHE1” value in assay [1] is recorded as “inhibit”. The “phenylephrine-induced enhanced NHE1 activity” value in assay [1] (phenylephrine-induced) is “inhibit”. For `CC(C)n1ncc2cc(NC(=O)c3ccc4cc5n(c4c3)C(C)CCNC5=O)cnc21` (stereo not drawn) [Example 162, 5-methyl-1-oxo-N-[1-(propan-2-yl)-1H-pyrazolo[3,4-b]pyridin-5-yl]-2,3,4,5-tetrahydro-1H-[1,4]diazepino[1,2-a]indole-8-carboxamide], the IC50 in assay [2] came to 19 nM. Still for that read-out and setting: to `CC(C)(C)c1cnc(NC(=O)c2ccc3cc4n(c3c2)CCCNC4=O)o1` [Example 111, N-(5-tert-butyl-1,3-oxazol-2-yl)-1-oxo-2,3,4,5-tetrahydro-1H-[1,4]diazepino[1,2-a]indole-8-carboxamide] belongs 1800 nM; to `O=C(Nc1cccnc1)c1ccc2cc3n(c2c1)CC1(CC1)CNC3=O` [Example 123, 1′-oxo-N-(pyridin-3-yl)-2′,3′-dihydro-1′H-spiro[cyclopropane-1,4′-[1,4]diazepino[1,2-a]indole]-8′-carboxamide], 430 nM; to `CC(=O)N1CCC(n2c(NC(=O)c3ccc4cc5n(c4c3)CCCNC5=O)nc3ccccc32)CC1` [Example 78, N-[1-(1-acetylpiperidin-4-yl)-1H-benzimidazol-2-yl]-1-oxo-2,3,4,5-tetrahydro-1H-[1,4]diazepino[1,2-a]indole-8-carboxamide], 58 nM. The same measure, in the same setting: to `CC(C)(O)Cn1c(NC(=O)c2ccc3cc4n(c3c2)CCCNC4=O)nc2ccccc21` [Example 85, N-[1-(2-hydroxy-2-methylpropyl)-1H-benzimidazol-2-yl]-1-oxo-2,3,4,5-tetrahydro-1H-[1,4]diazepino[1,2-a]indole-8-carboxamide] belongs 5.4 nM; to `C[C@H]1CNC(=O)c2cc3ccc(C(=O)Nc4cccnc4)cc3n21` [Example 155, (4S)-4-methyl-1-oxo-N-(pyridin-3-yl)-1,2,3,4-tetrahydropyrazino[1,2-a]indole-7-carboxamide], 2300 nM.

In general, IC50 refers to the midpoint of a concentration-inhibition curve.
